Like-named read-outs stand apart in the source and are kept apart here. Residues, ends and D or L forms follow the SMILES beside them.
Legend:
MDM2 (res 2-125) = MDM2 (res 2-125) (Homo sapiens, UniProt Q00987); experiment: Fluorescence anisotropy titration, binding to MDM2
Experimental: Titration experiments were run on a Horiba Jobin Yvon fluorimeter equipped with the Hamilton Microlab titrator controlled by laboratory software. […] The slit widths for excitation and emission were 5 nm and 15 nm and the integration time 10 s was used for each measurement. The intrinsic fluorescence of tryptophan in peptides 10, 48 was used to measure their binding affinity for MDM2 (res 2-125). The experiments were performed at 23C° in PBS, 5 mM DTT. Usually 250 μl of MDM2 (150 μM) was titrated into 1.2 ml of peptide (1 uM). Titration data were analyzed with a standard 1:1 binding model by using the quadratic solution to the equilibrium Kd=[A][B]/[AB]. […] The fitting equation contained an extra term to account for linear drift.

human plasma kallikrein [1] = molecular target: T1, human plasma kallikrein (Homo sapiens, UniProt P03952); experiment: Inhibition of human plasma kallikrein, fluorogenic substrate Z-Phe-Arg-AMC; assay type: biochemical; settings: for inhibition of human plasma kallikrein, fold weaker than parental inhibitor PK15: tricyclic peptides
T1 construct: purchased Innovative Research, Southfiled, USA
Experimental: Fluorescence intensities were recorded for 1 hour with excitation and emission wavelengths of 355 nm and 460 nm on a fluorescence plate reader (Molecular Devices, Sunnyvale, USA).

human plasma kallikrein [2] = molecular target: T1, human plasma kallikrein; settings: Heinis et al., 2009; cited from earlier work
[3] = molecular target: T2, leucyl aminopeptidase from Aeromonas proteolytica (Vibrio proteolyticus, UniProt Q01693); experiment: Aminopeptidase treatment of peptides (MALDI-TOF); assay type: in vitro ADME
T2 construct: purchased Sigma A8200
Experimental: Peptide 7 before (300 μM) and after (75 μM) MTGase treatment in reaction buffer was incubated with different amounts of leucyl aminopeptidase from Aeromonas proteolytica (EC 3.4.11.10; Sigma, A8200) (3 to 352 ng, corresponding to concentrations of about 50 nM to 6 μM) in a final volume of 2 μl for 30 min at RT. The mass of the peptides was determined by MALDI-TOF mass spectrometry.

MDM2 peptide (res 2-125) = molecular target: T3, MDM2 peptide (res 2-125) (Homo sapiens, UniProt Q00987); experiment: Competition ELISA of PEP48 phage binding to MDM2; settings: TBMB conjugate
T3 construct: biotinylated MDM2 peptide (res 2-125) was immobilized on a streptavidin-coated plate
Source text: Phage was detected using an anti-M13-HRP monoclonal antibody (1:5000, Amersham).

[4] = IC50 Before MTGase cyclisation (bicyclic), bicyclic TBMB conjugates
[5] = IC50 After MTGase cyclisation (tricyclic), tricyclic peptides after MTGase treatment

Chain of MDM2 (res 2-125) (Q00987 2-125): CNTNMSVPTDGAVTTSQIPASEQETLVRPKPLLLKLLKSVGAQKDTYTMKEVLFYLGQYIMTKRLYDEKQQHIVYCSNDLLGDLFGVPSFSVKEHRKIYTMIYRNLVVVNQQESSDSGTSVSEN
T1 sequence (P03952 391-638 limits assumed): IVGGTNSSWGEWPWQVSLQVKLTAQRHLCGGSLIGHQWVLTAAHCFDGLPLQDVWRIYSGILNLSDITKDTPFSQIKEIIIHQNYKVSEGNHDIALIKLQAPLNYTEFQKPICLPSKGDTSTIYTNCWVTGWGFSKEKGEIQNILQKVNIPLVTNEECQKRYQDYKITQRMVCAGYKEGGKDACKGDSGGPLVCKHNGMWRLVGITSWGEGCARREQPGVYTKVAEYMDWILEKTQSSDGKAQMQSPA
T1 sequence (P03952 20-390 partner limits assumed): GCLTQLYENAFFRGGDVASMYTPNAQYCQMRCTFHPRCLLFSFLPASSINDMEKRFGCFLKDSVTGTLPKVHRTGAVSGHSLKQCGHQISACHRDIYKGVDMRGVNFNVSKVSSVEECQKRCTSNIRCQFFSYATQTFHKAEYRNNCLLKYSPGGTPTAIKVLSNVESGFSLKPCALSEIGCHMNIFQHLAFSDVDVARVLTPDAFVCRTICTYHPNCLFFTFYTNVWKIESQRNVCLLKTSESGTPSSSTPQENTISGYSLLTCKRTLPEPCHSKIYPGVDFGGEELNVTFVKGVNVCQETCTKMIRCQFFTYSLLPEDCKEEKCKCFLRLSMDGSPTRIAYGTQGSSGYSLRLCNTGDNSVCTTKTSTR
T2 sequence (Q01693 107-405 limits assumed): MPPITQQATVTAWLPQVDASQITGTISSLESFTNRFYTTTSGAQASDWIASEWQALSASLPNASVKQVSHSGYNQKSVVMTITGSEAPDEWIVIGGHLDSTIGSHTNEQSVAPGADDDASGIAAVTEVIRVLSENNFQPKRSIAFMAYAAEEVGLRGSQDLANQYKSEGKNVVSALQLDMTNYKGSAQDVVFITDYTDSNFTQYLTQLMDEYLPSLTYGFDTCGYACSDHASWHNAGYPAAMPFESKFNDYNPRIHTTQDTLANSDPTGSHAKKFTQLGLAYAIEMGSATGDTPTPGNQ
T3 sequence (Q00987 2-125): as the sequence (Q00987 2-125) above

affinity of synthetic peptide for MDM2 (MDM2 (res 2-125))	Compound	IC50 (human plasma kallikrein [1]; [4]) [nM]	IC50 (human plasma kallikrein [1]; [5]) [nM]	inhibition of human plasma kallikrein, fold weaker than parental inhibitor PK15 (human plasma kallikrein [1])	further results
micromolar or better	CC(C)C[C@@H]1NC(=O)[C@H](CCC(=O)O)NC(=O)[C@@H](NC(=O)[C@@H](N)CO)CSCc2cc3cc(c2)CSC[C@H](NC(=O)[C@H](CCCCN)NC(=O)[C@@H]2CCCN2C(=O)[C@H](CC(N)=O)NC(=O)[C@H](Cc2c[nH]c4ccccc24)NC1=O)C(=O)N[C@@H](CCCNC(=N)N)C(=O)N[C@@H](CC(C)C)C(=O)N[C@@H](CO)C(=O)N1CCC[C@H]1C(=O)N[C@@H](Cc1ccccc1)C(=O)N[C@@H](CCC(=O)O)C(=O)N[C@H](C(=O)N[C@@H](CCCCN)C(=O)NCC(=O)O)CSC3 [PEP10] (HELM PEPTIDE1{S.C.E.L.W.N.P.K.C.R.L.S.P.F.E.C.K.G}|CHEM1{[c1c(C[*:1])cc(C[*:3])cc1C[*:2]]}$PEPTIDE1,CHEM1,2:R3-1:R1|PEPTIDE1,CHEM1,9:R3-1:R2|PEPTIDE1,CHEM1,16:R3-1:R3$$$V2.0; bridges inferred)				
	[H][C@@]12CCCN1C(=O)[C@]1([H])CSCc3cc(cc(c3)CSC[C@@H](C(=O)NCC(N)=O)NC(=O)[C@H](CC(C)C)NC(=O)[C@H](C)NC(=O)[C@H](CCC(=O)O)NC(=O)[C@H](CC(=O)O)NC(=O)[C@H](C)NC2=O)CSC[C@H](NC(=O)[C@H](C)N)C(=O)N[C@@H](CO)C(=O)N[C@@H](CC(=O)O)C(=O)N[C@@H](CCCNC(=N)N)C(=O)N[C@@H](Cc2ccccc2)C(=O)N[C@@H](CCCNC(=N)N)C(=O)N[C@@H](CC(N)=O)C(=O)N1 [PK15, reference compound] (HELM PEPTIDE1{A.C.S.D.R.F.R.N.C.P.A.D.E.A.L.C.G.[am]}|CHEM1{[c1c(C[*:1])cc(C[*:3])cc1C[*:2]]}$PEPTIDE1,CHEM1,2:R3-1:R1|PEPTIDE1,CHEM1,9:R3-1:R2|PEPTIDE1,CHEM1,16:R3-1:R3$$$V2.0)	3			factor of activity reduction on C-terminal conjugation to a protein (human plasma kallikrein [2]): around 10
	CC(C)C[C@H](NC(=O)[C@H](C)N)C(=O)N[C@@H](CCC(N)=O)C(=O)N[C@@H](C)C(=O)N[C@H]1CSCc2cc3cc(c2)CSC[C@H](NC(=O)[C@H](CC(N)=O)NC(=O)[C@H](CCCNC(=N)N)NC(=O)[C@H](Cc2ccccc2)NC(=O)[C@H](CCCNC(=N)N)NC(=O)[C@H](CC(=O)O)NC(=O)[C@H](CO)NC1=O)C(=O)N1CCC[C@H]1C(=O)N[C@@H](C)C(=O)N[C@@H](CC(=O)O)C(=O)N[C@@H](CCC(=O)O)C(=O)N[C@@H](C)C(=O)N[C@@H](CC(C)C)C(=O)N[C@H](C(=O)N[C@@H](C)C(=O)N[C@@H](CCCCN)C(=O)N[C@@H](CO)C(N)=O)CSC3 [peptide 7] (HELM PEPTIDE1{A.L.Q.A.C.S.D.R.F.R.N.C.P.A.D.E.A.L.C.A.K.S.[am]}|CHEM1{[c1c(C[*:1])cc(C[*:3])cc1C[*:2]]}$PEPTIDE1,CHEM1,5:R3-1:R1|PEPTIDE1,CHEM1,12:R3-1:R2|PEPTIDE1,CHEM1,19:R3-1:R3$$$V2.0)	259	200	about 70 fold	amount of exopeptidase at which exocyclic amino acids (Ala-Leu-Gln-Ala) were degraded ([3]; bicyclic peptide, 30 min at RT): ≥ 70 ng; exopeptidase needed to degrade the Gln-Ala dipeptide ([3]; tricyclic peptide, compared with bicyclic): higher exopeptidease concentrations were required
	CC(C)C[C@@H]1NC(=O)[C@H](C)NC(=O)[C@H](CCC(=O)O)NC(=O)[C@H](CC(=O)O)NC(=O)[C@H](C)NC(=O)[C@@H]2CCCN2C(=O)[C@@H]2CSCc3cc(cc(c3)CSC[C@@H](C(=O)N[C@@H](C)C(=O)N[C@@H](CCCCN)C(=O)N[C@@H](CO)C(N)=O)NC1=O)CSC[C@H](NC(=O)[C@H](C)NC(=O)[C@H](CCC(N)=O)NC(=O)[C@H](CC(C)C)NC(=O)[C@H](C)NC(=O)[C@@H](N)Cc1c[nH]c3ccccc13)C(=O)N[C@@H](CO)C(=O)N[C@@H](CC(=O)O)C(=O)N[C@@H](CCCNC(=N)N)C(=O)N[C@@H](Cc1ccccc1)C(=O)N[C@@H](CCCNC(=N)N)C(=O)N[C@@H](CC(N)=O)C(=O)N2 [peptide 8] (HELM PEPTIDE1{W.A.L.Q.A.C.S.D.R.F.R.N.C.P.A.D.E.A.L.C.A.K.S.[am]}|CHEM1{[c1c(C[*:1])cc(C[*:3])cc1C[*:2]]}$PEPTIDE1,CHEM1,6:R3-1:R1|PEPTIDE1,CHEM1,13:R3-1:R2|PEPTIDE1,CHEM1,20:R3-1:R3$$$V2.0)	185	196	about 70 fold	
micromolar or better	H-SCVRFGWTCDNSWHGCKG-OH (cysteine pairing not given here) [PEP48, bicyclic peptide selected against MDM2]				binding site on MDM2 by competition ELISA (MDM2 peptide (res 2-125)): bind to the same site as a linear peptide previously shown to block the p53-MDM2 interaction; Kd (MDM2 (res 2-125); entire bicyclic peptide, read-out: binding affinity (Kd) for MDM2): 500 to 800 nM; Kd (MDM2 (res 2-125); measured λex=280 nm, read-out: Kd, peptide + MDM2): 760 nM; Kd (MDM2 (res 2-125); measured λex=295 nm, read-out: Kd, peptide + MDM2): 567 nM

— patent publication US20120101253A1, “STRUCTURED POLYCYCLIC PEPTIDE” (priority 2009, published 2012)
